Source: PMC8595372 (Nature Communications, 2021)
pIC50, pKd: −log10 of the molar value. Where two headings read alike, the source gives them in different places. One block for each compound: values may come before it.

How the values were obtained:
[1] = target: T1, DYRK1A (Homo sapiens, UniProt Q13627); assay: biochemical; parameters: nanoDSF thermal shift, Prometheus NT.48, 5 uM protein, ligand-induced melting temperature change versus buffer or DMSO control; conditions: for ΔTm at 1 µM / ΔTm at 10 µM / ΔTm at 100 µM: read-out: ΔTm to control (°C); for ΔTm to control (°C): binder
T1 construct: kinase domain, residues 127–485
Protocol: (§1) Nano-differential scanning fluorimetry measurements were performed for the determination of thermal protein stability using a Prometheus NT.48 (NanoTemper) device operating at the two wavelengths λ = 330 and 350 nm. […] The thermal stability was monitored from 20 to 70 °C at a heating rate of 1.5 °C/min using the PR.ThermControl software. […] Kinases were immobilized to the chip surface by amine coupling. […] Dissociation constants were determined based on fits applying a 1:1 interaction model. b Thermal protein stability measurements were performed using the NanoDSF technique. […] For raw data see Supplementary Table 3. Source data are provided as a Source Data file.

[2] = target: T2, HIPK3 (Homo sapiens, UniProt Q9H422); assay: radioactive in vitro kinase assay, His-c-Myc substrate; assay type: biochemical
T2 construct: kinase domain, residues 159–562

[3] = target: T3, HIPK1 (Homo sapiens, UniProt Q86Z02); assay: radioactive in vitro kinase assay; nanoDSF shift +[…] °C; assay type: biochemical
T3 construct: residues 154-554

[4] = target: T2, HIPK3; assay: ([…] Å) and SPR; kinase assay IC50 […]; assay type: binding
[5] = target: T4, HIPK2 (Homo sapiens, UniProt Q9H2X6); assay: SPR single-cycle kinetics; nanoDSF; kinase assay IC50 […]; assay type: binding
T4 construct: residues 160–563

[6] = target: T5, Cdk4 (Homo sapiens, UniProt P11802); assay: biochemical; parameters: nanoDSF thermal shift, Prometheus NT.48, 5 uM protein, ligand-induced melting temperature change versus buffer or DMSO control; conditions: read-out: ΔTm to control (°C)
T5 construct: full-length Cdk4 (residues 1–303) with Cyclin D3 (residues 1–292); with Cyclin D3
Protocol: as §1

[7] = target: T6, Cdk9 (Homo sapiens, UniProt P50750); assay: biochemical; parameters: nanoDSF thermal shift, Prometheus NT.48, 5 uM protein, ligand-induced melting temperature change versus buffer or DMSO control; conditions: read-out: ΔTm to control (°C)
T6 construct: full-length Cdk9 (residues 1–372) with Cyclin T1 (residues 1–272); with Cyclin T1
Protocol: as §1

[8] = target: T3, HIPK1; assay: biochemical; parameters: nanoDSF thermal shift, Prometheus NT.48, 5 uM protein, ligand-induced melting temperature change versus buffer or DMSO control; conditions: read-out: ΔTm to control (°C)
Protocol: as §1

[9] = target: T4, HIPK2; assay: biochemical; parameters: nanoDSF thermal shift, Prometheus NT.48, 5 uM protein, ligand-induced melting temperature change versus buffer or DMSO control; conditions: read-out: ΔTm to control (°C)
Protocol: as §1

[10] = target: T2, HIPK3; assay: biochemical; parameters: nanoDSF thermal shift, Prometheus NT.48, 5 uM protein, ligand-induced melting temperature change versus buffer or DMSO control; conditions: read-out: ΔTm to control (°C)
Protocol: as §1

T3 sequence (Q86Z02 154-554): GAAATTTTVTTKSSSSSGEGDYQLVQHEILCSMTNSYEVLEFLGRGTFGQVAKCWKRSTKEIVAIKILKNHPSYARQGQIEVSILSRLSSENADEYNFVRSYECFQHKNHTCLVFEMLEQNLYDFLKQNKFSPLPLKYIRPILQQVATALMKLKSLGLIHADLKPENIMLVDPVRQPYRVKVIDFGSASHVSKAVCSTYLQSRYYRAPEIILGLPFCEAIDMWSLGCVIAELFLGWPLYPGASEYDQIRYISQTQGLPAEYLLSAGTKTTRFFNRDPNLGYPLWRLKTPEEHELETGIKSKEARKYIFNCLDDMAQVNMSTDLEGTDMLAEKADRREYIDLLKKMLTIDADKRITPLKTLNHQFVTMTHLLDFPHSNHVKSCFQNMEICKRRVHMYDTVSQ
T2 sequence (Q9H422 159-562): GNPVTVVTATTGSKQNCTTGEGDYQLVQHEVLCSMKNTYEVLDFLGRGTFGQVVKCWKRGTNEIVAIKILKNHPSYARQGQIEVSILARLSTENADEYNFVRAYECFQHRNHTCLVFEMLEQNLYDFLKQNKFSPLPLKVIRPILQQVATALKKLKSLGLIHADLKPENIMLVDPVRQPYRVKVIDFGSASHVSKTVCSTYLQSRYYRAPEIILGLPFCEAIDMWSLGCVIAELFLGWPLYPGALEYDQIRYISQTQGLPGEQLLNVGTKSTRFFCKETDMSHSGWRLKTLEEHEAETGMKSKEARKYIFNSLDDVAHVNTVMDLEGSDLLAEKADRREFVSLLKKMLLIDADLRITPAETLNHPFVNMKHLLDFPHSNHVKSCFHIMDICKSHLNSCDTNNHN
T4 sequence (Q9H2X6 160-563): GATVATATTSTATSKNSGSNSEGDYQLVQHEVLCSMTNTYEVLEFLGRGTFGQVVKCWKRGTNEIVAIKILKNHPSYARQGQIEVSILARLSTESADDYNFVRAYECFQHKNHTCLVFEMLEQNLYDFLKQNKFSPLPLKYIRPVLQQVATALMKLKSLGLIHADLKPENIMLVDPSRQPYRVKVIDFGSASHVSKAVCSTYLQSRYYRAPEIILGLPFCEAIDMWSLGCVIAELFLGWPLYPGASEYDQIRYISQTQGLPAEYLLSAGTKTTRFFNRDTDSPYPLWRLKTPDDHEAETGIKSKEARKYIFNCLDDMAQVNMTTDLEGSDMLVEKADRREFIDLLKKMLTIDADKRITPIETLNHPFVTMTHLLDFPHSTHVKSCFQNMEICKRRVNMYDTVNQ
T6 sequence (P50750 whole entry, the tested form may be a part): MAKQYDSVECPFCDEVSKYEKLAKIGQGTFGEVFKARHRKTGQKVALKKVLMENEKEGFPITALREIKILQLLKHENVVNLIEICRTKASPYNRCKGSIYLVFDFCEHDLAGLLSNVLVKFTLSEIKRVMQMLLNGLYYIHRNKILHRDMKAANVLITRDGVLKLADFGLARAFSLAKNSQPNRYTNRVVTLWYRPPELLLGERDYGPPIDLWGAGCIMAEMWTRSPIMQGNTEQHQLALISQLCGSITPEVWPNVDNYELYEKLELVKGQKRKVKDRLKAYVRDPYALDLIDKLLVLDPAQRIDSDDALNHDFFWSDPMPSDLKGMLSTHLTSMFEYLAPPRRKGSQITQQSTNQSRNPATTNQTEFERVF
T6 sequence (O60563 1-272 partner): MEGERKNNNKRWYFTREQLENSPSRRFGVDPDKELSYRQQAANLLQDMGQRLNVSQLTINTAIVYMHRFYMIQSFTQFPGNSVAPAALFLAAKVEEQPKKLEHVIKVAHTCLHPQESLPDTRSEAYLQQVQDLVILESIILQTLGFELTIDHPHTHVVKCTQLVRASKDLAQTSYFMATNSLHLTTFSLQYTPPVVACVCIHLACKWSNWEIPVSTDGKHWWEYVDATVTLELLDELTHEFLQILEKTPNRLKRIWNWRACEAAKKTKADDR
T5 sequence (P11802 whole entry, the tested form may be a part): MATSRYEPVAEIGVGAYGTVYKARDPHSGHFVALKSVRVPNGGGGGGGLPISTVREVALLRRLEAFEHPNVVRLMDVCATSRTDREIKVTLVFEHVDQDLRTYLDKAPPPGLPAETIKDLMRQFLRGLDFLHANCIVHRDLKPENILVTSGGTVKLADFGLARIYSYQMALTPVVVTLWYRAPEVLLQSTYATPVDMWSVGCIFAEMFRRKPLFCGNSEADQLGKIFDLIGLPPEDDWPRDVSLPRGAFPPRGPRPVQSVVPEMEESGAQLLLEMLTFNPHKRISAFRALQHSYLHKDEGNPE
T5 sequence (P30281 whole entry partner, the tested form may be a part): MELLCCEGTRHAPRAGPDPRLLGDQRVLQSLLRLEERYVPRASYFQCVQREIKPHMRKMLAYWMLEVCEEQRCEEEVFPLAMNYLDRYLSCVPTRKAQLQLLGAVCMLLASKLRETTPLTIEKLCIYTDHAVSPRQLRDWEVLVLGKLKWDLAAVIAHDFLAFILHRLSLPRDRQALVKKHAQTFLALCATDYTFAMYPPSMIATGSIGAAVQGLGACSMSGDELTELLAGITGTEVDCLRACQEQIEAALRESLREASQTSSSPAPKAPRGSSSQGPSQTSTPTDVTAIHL

SMILES: Nc1ncnc2c1ncn2[C@@H]1O[C@H](COP(=O)(O)OP(=O)(O)O)[C@@H](O)[C@H]1O [ADP]
ΔTm at 1 µM [1]: -0.1 °C | ΔTm at 10 µM [1]: 0 °C | ΔTm at 100 µM [1]: -0.1 °C

SMILES: O=C1NC(=O)/C(=C/c2ccc3nccc(-c4ccncc4)c3c2)S1 [GSK1059615]
pIC50 [2]: 5.97

SMILES: CCN1CCN(Cc2ccc(Nc3ncc(F)c(-c4cc(F)c5nc(C)n(C(C)C)c5c4)n3)nc2)CC1 [abemaciclib]
pIC50 [3]: 5.34 | pKd [4]: 9.10 | pKd [5]: 9.10 | ΔTm at 1 µM [6]: 4.1 °C | ΔTm at 100 µM [6]: 7.9 °C | ΔTm at 1 µM [7]: 0.6 °C | ΔTm at 10 µM [7]: 2.4 °C | ΔTm at 1 µM [1]: 0.6 °C | ΔTm at 10 µM [1]: 3.1 °C | ΔTm at 100 µM [1]: 5.2 °C | ΔTm at 1 µM [8]: 0.4 °C | ΔTm at 10 µM [8]: 6.4 °C | ΔTm at 100 µM [8]: 8.7 °C | ΔTm at 1 µM [9]: 1.5 °C | ΔTm at 10 µM [9]: 4.7 °C | ΔTm at 100 µM [9]: 7.2 °C | ΔTm at 1 µM [10]: 0.2 °C | ΔTm at 10 µM [10]: 5.3 °C | ΔTm at 100 µM [10]: 7.4 °C

Second part, the compound after the results:

ΔTm to control (°C) ([1]; 1 uM): -0.2 °C | ΔTm to control (°C) ([1]; 10 uM): +0.1 °C | ΔTm to control (°C) ([1]; 100 uM): 0.0 °C
SMILES: Nc1ncnc2c1ncn2[C@@H]1O[C@H](COP(=O)(O)OP(=O)(O)OP(=O)(O)O)[C@@H](O)[C@H]1O [ATP]

pIC50 ([2]; read-out: IC50): 5.80
SMILES: CN(C)C[C@H]1CC[C@H](N2C(=O)NCc3cnc4ccc(-c5cc(Cl)c(O)c(Cl)c5)cc4c32)CC1 [HTH-01-091]
